The structures appear in SMILES notation. pKi: −log10 of the molar value.

One data set has as its target NMDA receptor. The data set can be described thus: NMDA-Selective Glutamate Binding Assay (L-[3H]glutamate). Also noted: species or system rat. The conditions noted are these: 12.5 nM L-[3H]glutamate, synaptic plasma membranes, pH 7.4, 0-4° C., 10 min; read-out: NMDA Receptor Binding Data, Ki IC50 Binding NMDA. The procedure:
Synaptic plasma membranes (SPM) were prepared as previously described [Monahah, J. B. and Michel, J., "Identification and Characterization of an N-methyl-D-aspartate-specific L[^3 H]glutamate Recognition Site in Synaptic Plasma Membranes, J. Neurochem., 48, 1699-1708 (1987)]. The SPM were stored at a concentration of 10-15 mg/ml in 0.32M sucrose, 0.5 mM EDTA, 1 mM MgSO4, 5 mM Tris/SO4, pH 7.4, under liquid nitrogen. The identity and purity of the subcellular fractions were confirmed by both electron microscopy and marker enzymes. Protein concentrations were determined by using a modification of the method of Lowry [Ohnishi, S. T. and Barr, J. K., "A Simplified Method of Quantitating Proteins using the Biuret and Phenol Reagents", Anal. Biochem., 86, 193-197 (1978)]. The SPM were treated identically for the [^3 H]AMPA (QUIS), [^3 H]kainate and sodium-dependent L-[^3 H]-glumatate binding assays. The SPM were thawed at room temperature, diluted twenty-fold with 50mM Tris/acetate, pH 7.4, incubated at 37° C. for 30 minutes, and centrifuged at 100,000 g for 15 minutes. The dilution, incubation, and centrifugation was repeated a total of three times. Prior to use in the NMDA-specific L-[^3 H]-glutamate binding assay the SPM were thawed, diluted twenty fold with 50 mM Tris/acetate, pH 7.4 containing 0.04% (v/v) Triton X-100, incubated for 30 minutes at 37° C. and centrifuged as described above. The Triton X-100 treated membranes were washed with 50 mM Tris/acetate, pH 7.4 and centrifuged at 100,000 g for 15 minutes a total of four times. […] The basic procedure for the receptor subclass binding assays was similar. This general method involved adding the radioligand (12.5 nM L-[^3 H] glutamate; 0.5 nM [^3 H]kainate or 10 nM [^3 H]AMPA) to the appropriate concentration of the test compound and initiating the assay by the addition of ice cold synaptic plasma membranes (0.2-0.45 mg). The binding assays were performed in 1.5 mL centrifuge tubes with the total volume adjusted to 1.0 mL. Additions of test compounds were made in 50 mM Tris/acetate, pH 7.4 and incubations were carried out at 0°-4° C. The incubation time for the NMDA and the AMPA binding assays was 10 minutes, for the kainate binding assay 60 minutes and for the sodium-dependent glutamate binding assay 15 minutes. The AMPA binding assay contained 100 mM KSCN and the sodium-dependent glutamate binding assay contained 150 mM sodium acetate in addition to the previously described reagents. To terminate the incubation, the samples were centrifuged for 15 minutes at 12,000 g and 4° C. in a Beckman Microfuge 12. The supernatant was aspirated and the pelleted membranes dissolved in Beckman BTS-450 tissue solubilizer for a minimum of 6 hours at room temperature. Beckman MP scintillation cocktail containing 7 mL/1 acetic acid was then added and the samples counted on a Beckman LS 5800 or 3801 liquid scintillation counter with automatic corrections for quenching and counting efficiency. Nonspecific binding was defined as the residual binding in the presence of either excess L-glutamate (0.1-0.4 mM), kainate (0.01 mM), or NMDA (0.5 mM), and was 15-25% of the total binding in the NMDA binding assay, 19-27% in the AMPA binding assay, 20-30% in the kainate binding assay and 10-15% in the sodium-dependent binding assay. Radioligand binding to the synaptic plasma membranes was analyzed using Scatchard and Hill transformations and the Ki values of the compounds determined using logit-log transformations. Calculations and regression analysis were performed using templates developed for Lotus 1, 2, 3 as previously described [Pullan, L. M. "Automated Radioligand Receptor Binding Analysis with Templates for Lotus", Computer Appln. Biosci., 3, 131 (1987)]. Binding results are reported in Table I for example compounds of the invention.

Data set [1] in a line: Motor impairment, inverted screen test.
Experimental: Naive male CD-1 mice (20-30 grams body weight) from Charles River Laboratories, Portage Mich. served as subjects. The mice had ad libitum access to food and water prior to testing and were maintained on a 12 hour light/12 hour dark schedule with testing during the light portion of the cycle. The mice were tested for motor impairment by use of the inverted screen test approximately 5 minutes prior to anticonvulsant testing. […] Mice were placed on 13×13 cm pieces of #4 wire mesh screen which were mounted horizontally. The screens were then slowly inverted. […] PG-Tween is a 1:1 mixture of propylene glycol and Tween 80. […] There were 10 mice in each treatment group.
A further data set relates to cGMP in cerebellum. The data set is described as follows: Assay for Effect on cGMP Levels in Cerebellum. In kind it is in vivo, mouse (Swiss-Webster). The procedure:
The purpose of this assay is to determine the extent of in vivo bioavailability and the potency as an NMDA antagonist of compound of the invention as compared to known NMDA antagonists, namely, 3(2-carboxypiperizine-4-yl)propyl-1-phosphonic acid (CPP) and cis-4-phosphonomethyl-2-piperidinecarboxylic acid (CGS 19755). Male Swiss-Webster mice (17-24 g were injected sub-cutaneously (s.c.) with compound of the invention and the known NMDA antagonist standards 30 minutes prior to sacrifice by focussed microwave irradiation. Groups consisted of 7-10 mice. Compounds of Ex. #7 was dissolved in isotonic saline and all compounds were administered in a volume of 0.2 ml per mouse. Cerebella samples were extracted in IN HCl. Hydrochloric acid in extracts of the cerebellum were freeze-dried for assay of cGMP with a commercial RIA kit (NEN). Statistics (Dunett's t-test) were performed as described previously [P. L. Wood et al., Neurochem., 19, 975-982 (1980)]. ED50 values were calculated from log-logit transformation of the dose-response data.

The target of data set [2] is TCP (1-[1-(2-thienyl)cyclohexyl]piperidine) binding. The data set can be described thus: TCP Modulation Assay. Also noted: species or system rat. The conditions noted are these: 2 nM tritiated TCP, 0.05 mM L-glutamate, rat brain SPM, pH 7.4, 25° C., 60 min; read-out: TCP Ki IC50. The procedure: The effect on the TCP (1-[1-(2-thienyl)cyclohexyl]piperidine) binding was measured in rat brain synaptic membranes (SPM) prepared as previously described [J. B. Monahah & J. Michel; J. Neurochem. […] Prior to their use in the binding assay, frozen SPM were thawed, diluted twenty fold with 50 mM Tris/acetate (pH 7.4 containing 0.04% (v/v) Triton X-100), incubated for 30 min. at 37° C. and centrifuged at 95,000 xg for 15 min. The Triton X-100 treated SPM were washed with 5 mM Tris/HCl, pH 7.4 and centrifuged a total of six times. […] The samples were filtered through glass fiber filters (Schleicher & Schuell #32) which have been pretreated with 0.05% (v/v) polyethylenimine, washed 4 times with 2 ml of ice-cold 5 mM Tris/HCl buffer, and then counted on a Beckman LS 5800 liquid scintillation counter with automatic corrections for quenching and counting efficiency. Inhibition of TCP binding was measured as a decrease in the binding in the presence of 0.05 mM L-glutamate. Non-specific binding was defined as the residual binding in the presence of […] phencyclidine.

What is called pKi is the negative decadic logarithm of the Ki, by convention in mol/L. For orientation: TD50 means the 50% point of the dose-response relation for the toxic effect studied. A higher TD50 goes with lower toxicity. The term ED50 denotes the dose that gives a 50% effect, or the effect in half of the subjects. With `O=C(O)c1cn2c(CP(=O)(O)O)cccc2n1` [Example 7, 5-(phosphonomethyl)imidazo[1,2-a]pyridine-2-carboxylic acid], the values for the negative logarithm of the Ki (pKi) (on NMDA receptor; in data set [2]) were 5.62 and 5.49, respectively. For the same compound, the “Exhibiting Motor Impairments (% of Mice)” value in data set [1] (10 mg/kg s.c.) came to 30%; in data set [1] (32 mg/kg s.c.), 50%; in data set [1] (56 mg/kg s.c.), 70%; in data set [1] (100 mg/kg s.c.), 90%. The compound also showed a TD50 at 0.5 h in data set [1] (mouse, inverted screen test, sc) of 24.6 mg/kg. Besides, the “impaired motor function (in words)” value in data set [1] (s.c.) is on record as “impaired motor function in a similar dose range”. Moreover, the ED50 in the data set on cGMP in cerebellum (Mus musculus, sc, 0.5 h, 30 min prior to sacrifice, read-out: Decrease in cGMP ED50) was determined as 18.3 mg/kg. For the same compound, the “brain bioavailability (in words)” value with cGMP in cerebellum (by decrease of cGMP in mouse cerebellum, s.c.) is “brain bioavailable”. The “potency relative to CPP (in words)” value in the data set with cGMP in cerebellum (s.c., cerebellar cGMP) was “in the same range of potency as the known NMDA antagonist CPP”.
